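A five-concentration, 48-hour dose response in 96-well plates underlies each endpoint, interpolated linearly between surrounding concentrations. GI50: concentration for 50% inhibition of growth.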 Activity calls are given as the source filed them. Cut-off read from the data, not from the text of the source: active = GI50 up to about 1.1 µM and inactive = higher.
Columns and labels:
Experiment in all cases: NCI anticancer screen, dose series, 48 h
A498 = tested on: A498
BT-549 = tested on: BT-549
EKVX = tested on: EKVX
HCT-116 = tested on: HCT-116
HOP-62 = tested on: HOP-62
K562 = tested on: K562
MDA-MB-231 = tested on: MDA-MB-231
MDA-MB-435 = tested on: MDA-MB-435
NCI-H226 = tested on: NCI-H226
NCI-H23 = tested on: NCI-H23
NCI-H522 = tested on: NCI-H522
OVCAR-8 = tested on: OVCAR-8
RPMI-8226 = tested on: RPMI-8226
SK-MEL-28 = tested on: SK-MEL-28
SK-OV-3 = tested on: SK-OV-3
SW-620 = tested on: SW-620
T47D = tested on: T47D
U-251 = tested on: U-251
ACHN = tested on: ACHN

Measured: GI50

C=Cc1nc(C#N)c(N)o1
inactive: A498 > 100 µM | BT-549 > 100 µM | EKVX > 100 µM | HCT-116 > 100 µM | HOP-62 > 100 µM | K562 > 100 µM | MDA-MB-231 > 100 µM | MDA-MB-435 > 100 µM | NCI-H226 > 100 µM | NCI-H23 > 100 µM | NCI-H522 > 100 µM | OVCAR-8 > 100 µM | RPMI-8226 > 100 µM | SK-MEL-28 > 100 µM | SK-OV-3 > 100 µM | SW-620 > 100 µM | T47D > 100 µM | U-251 > 100 µM

CCc1cccc(C(C)C)c1NC(=O)C(=O)C1C(=O)Nc2ccccc2[S+]1[O-] (centres undefined)
inactive: A498 > 100 µM | ACHN > 100 µM | BT-549 > 100 µM | EKVX 57.8 µM | HCT-116 > 100 µM | HOP-62 > 100 µM | MDA-MB-231 > 100 µM | MDA-MB-435 > 100 µM | NCI-H226 > 100 µM | NCI-H23 > 100 µM | NCI-H522 > 100 µM | OVCAR-8 > 100 µM | RPMI-8226 > 100 µM | SK-MEL-28 > 100 µM | SK-OV-3 > 100 µM | SW-620 > 100 µM | T47D > 100 µM | U-251 > 100 µM

O=c1cc(CO)oc(C(O)c2ccccc2)c1O (centres undefined)
inactive: A498 > 100 µM | ACHN > 100 µM | BT-549 > 100 µM | HCT-116 > 100 µM | HOP-62 > 100 µM | MDA-MB-231 > 100 µM | MDA-MB-435 > 100 µM | NCI-H226 > 100 µM | NCI-H23 > 100 µM | NCI-H522 > 100 µM | OVCAR-8 > 100 µM | RPMI-8226 > 100 µM | SK-MEL-28 > 100 µM | SK-OV-3 > 100 µM | SW-620 > 100 µM | T47D > 100 µM | U-251 > 100 µM

N#CC(N)c1ccc(OCCCCCCCCCCOc2ccc(C(N)C#N)cc2)cc1 (centres undefined)
inactive: A498 > 100 µM | ACHN > 100 µM | BT-549 > 100 µM | EKVX > 100 µM | HCT-116 80 µM | K562 > 100 µM | MDA-MB-231 > 100 µM | MDA-MB-435 > 100 µM | NCI-H226 > 100 µM | NCI-H23 > 100 µM | NCI-H522 > 100 µM | OVCAR-8 44.3 µM | SK-MEL-28 > 100 µM | SK-OV-3 > 100 µM | SW-620 > 100 µM | T47D 84.1 µM | U-251 65.3 µM

COc1cc2ccc(C(=O)NCCCNC(=O)c3ccc4cc(OC)c(OC)cc4c3)cc2cc1OC
inactive: A498 > 100 µM | ACHN > 100 µM | BT-549 > 100 µM | EKVX > 100 µM | HCT-116 > 100 µM | HOP-62 > 100 µM | K562 > 100 µM | MDA-MB-231 97.1 µM | MDA-MB-435 > 100 µM | NCI-H226 > 100 µM | NCI-H23 > 100 µM | NCI-H522 > 100 µM | OVCAR-8 > 100 µM | SK-MEL-28 > 100 µM | SK-OV-3 > 100 µM | SW-620 > 100 µM | T47D > 100 µM | U-251 > 100 µM

C=C1[C@@H]([C@@]2(C)C=CC(=O)C(C)(C)[C@@H]2CC(=O)OC)CC[C@@]2(C)[C@H](c3ccoc3)OC(=O)[C@H]3O[C@]132 [ANDIROBIN]
inactive: A498 79.4 µM | ACHN > 100 µM | BT-549 > 100 µM | EKVX > 100 µM | HCT-116 > 100 µM | MDA-MB-231 > 100 µM | MDA-MB-435 > 100 µM | NCI-H226 > 100 µM | NCI-H23 > 100 µM | NCI-H522 > 100 µM | OVCAR-8 > 100 µM | SK-MEL-28 > 100 µM | SK-OV-3 > 100 µM | SW-620 > 100 µM | T47D 94.4 µM | U-251 > 100 µM

N#Cc1c(Nc2nc3ccccc3s2)c2ccccc2n2c1nc1ccccc12
inactive: A498 89.5 µM | ACHN 79.8 µM | BT-549 > 100 µM | EKVX > 100 µM | HCT-116 > 100 µM | HOP-62 27.1 µM | MDA-MB-231 48.4 µM | MDA-MB-435 > 100 µM | NCI-H23 > 100 µM | NCI-H522 > 100 µM | OVCAR-8 > 100 µM | RPMI-8226 > 100 µM | SK-MEL-28 > 100 µM | SW-620 > 100 µM | T47D > 100 µM | U-251 90.8 µM

Cc1ccc2c(c1)C=CC1(O2)N(c2ccccc2)C(=S)OC1(C)C (centres undefined)
inactive: A498 > 100 µM | ACHN > 100 µM | BT-549 > 100 µM | EKVX 30 µM | HCT-116 21.5 µM | HOP-62 > 100 µM | K562 7.29 µM | MDA-MB-231 > 100 µM | MDA-MB-435 22.1 µM | NCI-H226 > 100 µM | NCI-H23 35.4 µM | OVCAR-8 > 100 µM | RPMI-8226 22.9 µM | SK-MEL-28 > 100 µM | SK-OV-3 21.4 µM | SW-620 75.5 µM | T47D 3.86 µM | U-251 83.8 µM

COc1cc(OC)cc(Oc2nc3c(N)cc(C(F)(F)F)cc3nc2-c2ccccc2)c1
inactive: A498 > 100 µM | ACHN 28.5 µM | BT-549 > 100 µM | EKVX 25.5 µM | HCT-116 22.6 µM | HOP-62 > 100 µM | K562 2.71 µM | MDA-MB-231 28.9 µM | MDA-MB-435 11.4 µM | NCI-H226 43.2 µM | NCI-H23 92.7 µM | OVCAR-8 46.3 µM | RPMI-8226 16.4 µM | SK-MEL-28 61.8 µM | SK-OV-3 44.4 µM | SW-620 28.5 µM | T47D 3.14 µM | U-251 44.8 µM

Oc1[nH]c(Nc2cccc(Cl)c2)nc2ncnc1-2
inactive: A498 > 100 µM | ACHN > 100 µM | BT-549 > 100 µM | EKVX > 100 µM | HCT-116 62.4 µM | HOP-62 28.1 µM | K562 86.5 µM | MDA-MB-231 30.8 µM | MDA-MB-435 83.8 µM | NCI-H226 > 100 µM | NCI-H23 > 100 µM | NCI-H522 > 100 µM | OVCAR-8 > 100 µM | RPMI-8226 > 100 µM | SK-OV-3 > 100 µM | SW-620 > 100 µM | T47D 44.9 µM | U-251 > 100 µM

O=C(Nc1nncs1)NS(=O)(=O)n1cnc2ccccc21
inactive: A498 > 100 µM | ACHN > 100 µM | BT-549 > 100 µM | EKVX > 100 µM | HCT-116 > 100 µM | HOP-62 > 100 µM | MDA-MB-231 > 100 µM | MDA-MB-435 > 100 µM | NCI-H226 > 100 µM | NCI-H23 > 100 µM | NCI-H522 > 100 µM | OVCAR-8 > 100 µM | RPMI-8226 > 100 µM | SK-MEL-28 > 100 µM | SK-OV-3 > 100 µM | SW-620 > 100 µM | T47D > 100 µM | U-251 > 100 µM

Cc1cc(O)c2c(c1O)C(=O)c1c(O)ccc(O)c1C2=O [Cynodontin]
inactive: A498 > 100 µM | ACHN > 100 µM | BT-549 > 100 µM | EKVX > 100 µM | HCT-116 > 100 µM | HOP-62 > 100 µM | K562 > 100 µM | MDA-MB-231 > 100 µM | MDA-MB-435 > 100 µM | NCI-H226 > 100 µM | NCI-H23 > 100 µM | NCI-H522 > 100 µM | OVCAR-8 > 100 µM | RPMI-8226 > 100 µM | SK-OV-3 > 100 µM | SW-620 > 100 µM | T47D > 100 µM | U-251 > 100 µM

CN(C(=O)C1CCCCCC1=O)c1ccccc1Cl (centres undefined)
inactive: A498 > 100 µM | ACHN > 100 µM | BT-549 > 100 µM | EKVX > 100 µM | HCT-116 > 100 µM | HOP-62 > 100 µM | MDA-MB-231 > 100 µM | MDA-MB-435 > 100 µM | NCI-H226 > 100 µM | NCI-H23 > 100 µM | NCI-H522 > 100 µM | OVCAR-8 > 100 µM | RPMI-8226 > 100 µM | SK-MEL-28 > 100 µM | SK-OV-3 > 100 µM | SW-620 > 100 µM | T47D > 100 µM | U-251 > 100 µM

NC(=S)Nc1ccc(S(=O)(=O)Nc2ccc(S(N)(=O)=O)cc2)cc1
inactive: A498 > 100 µM | ACHN > 100 µM | BT-549 > 100 µM | EKVX > 100 µM | HCT-116 > 100 µM | HOP-62 > 100 µM | K562 > 100 µM | MDA-MB-231 > 100 µM | MDA-MB-435 > 100 µM | NCI-H226 > 100 µM | NCI-H23 > 100 µM | NCI-H522 > 100 µM | OVCAR-8 > 100 µM | RPMI-8226 > 100 µM | SK-MEL-28 > 100 µM | SW-620 > 100 µM | T47D > 100 µM | U-251 > 100 µM

CCCCCC/C=C/C#CCCCCCCCC(=O)O
inactive: A498 > 100 µM | ACHN > 100 µM | BT-549 > 100 µM | EKVX > 100 µM | HCT-116 > 100 µM | K562 > 100 µM | MDA-MB-231 > 100 µM | MDA-MB-435 > 100 µM | NCI-H226 > 100 µM | NCI-H23 > 100 µM | NCI-H522 > 100 µM | OVCAR-8 > 100 µM | RPMI-8226 > 100 µM | SK-MEL-28 > 100 µM | SK-OV-3 > 100 µM | SW-620 > 100 µM | T47D > 100 µM | U-251 > 100 µM

— ChEMBL document CHEMBL1201862, “PubChem BioAssay data set” (2004)
